Values quoted from earlier work in patent publication US7205292B2, “CGRP receptor antagonists” (Merck & Co., Inc., priority 2003, dated 2007).

Columns and labels:
CGRP [1] = settings: rats, electrical stimulation of the dura mater, prior administration
CGRP [2] = settings: rat, trigeminal ganglion stimulation
CGRP [3] = settings: marmoset, electrical stimulation of the trigeminal ganglion

| Compound | effect on increased diameter of the middle meningeal artery (CGRP [1]) | effect on increased facial blood flow (CGRP [2]) | effect on increase in facial blood flow (CGRP [3]) |
| --- | --- | --- | --- |
| CGRP(8-37) | blocked | inhibited |  |
| NCCCC[C@H](NC(=O)[C@@H](Cc1cc(Br)c(O)c(Br)c1)NC(=O)N1CCC(N2Cc3ccccc3NC2=O)CC1)C(=O)N1CCN(c2ccncc2)CC1 [BIBN4096BS] |  |  | blocked |
